From US20070191349A1, “C8, c8' linked 5-oxo-1,2,3,11a-tetrahydro-5h-pyrrolo[2,1-c][1,4] benzodiazepine dimers with 1h-pyrrole-dicarboxylic acid amide linkers and oligomeric analogs therof as well as related compounds for the treatment of proliferative diseases” (SPIROGEN LIMITED, priority 2004, published 2007)
Where two headings read alike, the source gives them in different places.

Assays:
linear pBR322 DNA = experiment: DNA cross-linking, electrophoretic assay (Hartley et al.); type: biochemical; details: 2 h at 37° C., pH 7.2
Experimental: The extent of DNA cross-linking induced by each PBD dimer was determined using the electrophoretic assay method of Hartley, et al. (Hartley, J. A., Berardini, M. D., and Souhami, R. L. (1991) Anal. Biochem. 193, 131-134) based on the principle that, following complete denaturation of linear pBR322 DNA (˜4,300 bp) to the single-stranded (SS) form, an interstrand cross-link results in renaturation to double-stranded (DS) in a neutral gel.
Closed-circular DNA was linearized with HindIII, then dephosphorylated and finally 5′-singly end-labelled using [γ^32P]-ATP and polynucleotide kinase. Reactions containing 30-40 ng of DNA and the test compound were carried out in aqueous TEOA (25 mM triethanolamine, 1 mM EDTA, pH 7.2) buffer at 37° C. in a final volume of 50 μl for 2 h. Reactions were terminated by addition of an equal volume of stop solution (0.6 M NaOAc, 20 mM EDTA, 100 μg/ml tRNA) followed by precipitation with ethanol. Following centrifugation, the supernatant was discarded and the pellet dried by lyophilization. […] Control non-denatured samples were re-suspended in 10 μl of non-denaturing buffer solution (0.6% sucrose, 0.04% bromophenol blue in aqueous TAE buffer [40 mM Tris, 20 mM acetic acid, 2 mM EDTA, pH 8.1]) and loaded directly onto the gel for comparison.
Electrophoresis was carried out for 14-16 h at 40 V using a 0.8% submerged agarose gel (20×25×0.5 cm) in TAE buffer. Gels were dried under vacuum for 2 h at 80° C. onto one layer each of Whatman 3MM and DE8I filter papers using a BioRad 583 gel dryer. Autoradiographs were obtained after exposure of Hyperfilm-MP film (Amersham plc, U.K.) to the dried gel for either 4 h with a screen (or over night, without a screen, to obtain a sharper image). Film bands were quantitated using a BioRad GS-670 imaging laser densitometer. Percentage cross-linking was calculated by measuring the total DNA in each lane (summed density for the double-stranded [DS] and single-stranded [SS] bands) relative to the amount of cross-linked DNA (density of DS band alone). A dose-response curve was derived by plotting drug concentration against the determined percentage level of cross-linked DNA which was then analysed to determine the concentration of test compound that results in 50% cross-linked plasmid DNA (XL50).

[1] = tested on: K562 human chronic myeloid leukaemia cells; experiment: In vitro cytotoxicity, K562 cells, MTT assay; type: cell-based; details: 1 h drug exposure, MTT after 4 days
Experimental: K562 human chronic myeloid leukaemia cells were maintained in RPM1 1640 medium supplemented with 10% fetal calf serum and 2 mM glutamine at 37° C. in a humidified atmosphere containing 5% CO2 and were incubated with a specified dose of drug for 1 h at 37° C. in the dark. The incubation was terminated by centrifugation (5 min, 300 g) and the cells were washed once with drug-free medium. Following the appropriate drug treatment, the cells were transferred to 96-well microtiter plates (10^4 cells per well, 8 wells per sample). Plates were then kept in the dark at 37° C. in a humidified atmosphere containing 5% CO2. The assay is based on the ability of viable cells to reduce a yellow soluble tetrazolium salt, 3-(4,5-dimethylthiazol-2-yl)-2,5-diphenyl-2H-tetrazolium bromide (MTT, Aldrich-Sigma), to an insoluble purple formazan precipitate. Following incubation of the plates for 4 days (to allow control cells to increase in number by approximately 10 fold), 20 μL of MTT solution (5 mg/mL in phosphate-buffered saline) was added to each well and the plates further incubated for 5 h. The plates were then centrifuged for 5 min at 300 g and the bulk of the medium pipetted from the cell pellet leaving 10-20 μL per well. DMSO (200 μL) was added to each well and the samples agitated to ensure complete mixing. The optical density was then read at a wavelength of 550 nm on a Titertek Multiscan ELISA plate reader, and a dose-response curve was constructed. For each curve, an IC50 value was read as the dose required to reduce the final optical density to 50% of the control value.

[2] = tested on: approximately 60 human tumour cell lines; experiment: NCI60 cell screen, in vitro cytotoxicity, SRB assay; type: cell-based; details: NCI 60 human tumour cell lines, 48 h continuous exposure
Experimental: The National Cancer Institute (NCI), Bethesda, Md., USA has available an in vitro cytotoxicity screen which consists of approximately 60 human tumour cell lines against which compounds are tested at a minimum of five concentrations each differing 10-fold. A 48 h continuous exposure protocol is used, where cell viability or growth is estimated with an SRB protein assay.
The test compounds were evaluated against approximately 60 human tumour cell lines. The NCI screening procedures were described in detail by Monks and co-workers (Monks, A et al., Journal of the National Cancer Institute, 1991, 83, 757). Briefly, cell suspensions were diluted according to the particular cell type and the expected target cell density (5000-40,000 cells per well based on cell growth characteristics), and added by pipette (100 μL) into 96-well microtitre plates. The cells were allowed a preincubation period of 24 h at 37° C. for stabilisation. Dilutions at twice the intended test concentration were added at time zero in 100 μL aliquots to the wells. The test compounds were evaluated at five 10-fold dilutions (10^−4, 10^−5, 10^−6, 10^−7 and 10^−[…]). The test compounds were incubated for 48 h in 5% CO2 atmosphere and 100% humidity. The cells were then assayed using the sulphorhodamine B assay. A plate reader was used to read the optical densities and a microcomputer processed the readings into GI50 values (in Moles), which is the dosage required to limit cell growth to 50%.

[3] = Alkali, read-out: XL50 (concentration that results in 50% cross-linked plasmid DNA), Alkali
[4] = Heat, read-out: XL50 (concentration that results in 50% cross-linked plasmid DNA), Heat

Work on COc1cc2c(cc1NC(=O)c1ccc(C(=O)Nc3cc4c(cc3OC)C(=O)N3CCC[C@H]3C=N4)n1C)N=C[C@@H]1CCCN1C2=O [(1) SJG-605, 1-Methyl-1H-pyrrole-2,5-dicarboxylic acid bis-[(11aS)(7-methoxy-5-oxo-1,2,3,11a-tetrahydro-5H-pyrrolo[2,1-c][1,4]benzodiazepin-8-yl)-amide]] yielded an EC50 (linear pBR322 DNA; [3]) of 1300 nM, an IC50 [1] of 1200 nM and a GI50 [2] of 1000 nM.

With COc1cc2c(cc1NC(=O)c1cc(C(=O)Nc3cc4c(cc3OC)C(=O)N3CCC[C@H]3C=N4)n(C)c1)N=C[C@@H]1CCCN1C2=O [(2) SJG-604, 1-Methyl-1H-pyrrole-2,4-dicarboxylic acid bis-[(11aS)(7-methoxy-5-oxo-1,2,3,11a-tetrahydro-5H-pyrrolo[2,1-c][1,4]benzodiazepin-8-yl)-amide]] the EC50 (linear pBR322 DNA; [3]) was 3500 nM, the IC50 [1] was 23000 nM and the GI50 [2] was 31600 nM.

Work on COc1cc2c(cc1OCCCNC(=O)c1ccc(C(=O)NCCCOc3cc4c(cc3OC)C(=O)N3CCC[C@H]3C=N4)n1C)N=C[C@@H]1CCCN1C2=O [(13) AT-217] yielded an EC50 (linear pBR322 DNA; [3]) of 350 nM, an EC50 (linear pBR322 DNA; [4]) of 3800 nM and a GI50 [2] of 19000 nM.

Compound COc1cc2c(cc1OCCCC(=O)Nc1cc(C(=O)NCCCNC(=O)c3cc(NC(=O)CCCOc4cc5c(cc4OC)C(=O)N4CCC[C@H]4C=N5)cn3C)n(C)c1)N=C[C@@H]1CCCN1C2=O [(15) AT-281] has an IC50 [1] of 340 nM and a GI50 [2] of 10 nM.

For COc1cc2c(cc1OCCCNC(=O)c1cc(NC(=O)c3cc(NC(=O)c4cc(NC(=O)CCCOc5cc6c(cc5OC)C(=O)N5CCC[C@H]5C=N6)cn4C)cn3C)cn1C)N=C[C@@H]1CCCN1C2=O [(18) AT-235], the EC50 (linear pBR322 DNA; [3]) was < 100 nM, the EC50 (linear pBR322 DNA; [4]) was 230 nM and the IC50 [1] was 1510 nM. For the same compound, the GI50 [2] was 10 nM.
